One block for each compound: values may come before it.
Tested on: 624824-186-R-J3-PDC multicell spheroids, viability
Assay: Anticancer human tumor 624824-186-R-J3-PDC patient-derived colon adenocarcinoma cell line growth inhibition [PI3K]
Conditions: for IC50: curve of first compound; for viability, T/C: stronger effect = lower value
In short: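 Combination activity was assessed by viability in multicellular tumor spheroids carrying HUVEC and MSC components. Agents were tested with PI3K inhibitors from a Cmax-based top dose (or 10 microM) downward in half-log increments.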

[1] = second compound 0.0316 µM, first compound 0.0316 µM
[2] = second compound 0.0316 µM, first compound 0.1 µM
[3] = second compound 0.0316 µM, first compound 0.316 µM
[4] = second compound 0.0316 µM, first compound 1 µM
[5] = second compound 0.0316 µM, first compound 3.16 µM
[6] = second compound 0.0316 µM, first compound 10 µM
[7] = second compound 0.1 µM, first compound 0.0316 µM
[8] = second compound 0.1 µM, first compound 0.1 µM
[9] = second compound 0.1 µM, first compound 0.316 µM
[10] = second compound 0.1 µM, first compound 1 µM
[11] = second compound 0.1 µM, first compound 3.16 µM
[12] = second compound 0.1 µM, first compound 10 µM
[13] = second compound 0.316 µM, first compound 0.0316 µM
[14] = second compound 0.316 µM, first compound 0.1 µM
[15] = second compound 0.316 µM, first compound 0.316 µM
[16] = second compound 0.316 µM, first compound 1 µM
[17] = second compound 0.316 µM, first compound 3.16 µM
[18] = second compound 0.316 µM, first compound 10 µM
[19] = second compound 1 µM, first compound 0.0316 µM
[20] = second compound 1 µM, first compound 0.1 µM
[21] = second compound 1 µM, first compound 0.316 µM
[22] = second compound 1 µM, first compound 1 µM
[23] = second compound 1 µM, first compound 3.16 µM
[24] = second compound 1 µM, first compound 10 µM
[25] = second compound 3.16 µM, first compound 0.0316 µM
[26] = second compound 3.16 µM, first compound 0.1 µM
[27] = second compound 3.16 µM, first compound 0.316 µM
[28] = second compound 3.16 µM, first compound 1 µM
[29] = second compound 3.16 µM, first compound 3.16 µM
[30] = second compound 3.16 µM, first compound 10 µM
[31] = second compound 10 µM, first compound 0.0316 µM
[32] = second compound 10 µM, first compound 0.1 µM
[33] = second compound 10 µM, first compound 0.316 µM
[34] = second compound 10 µM, first compound 1 µM
[35] = second compound 10 µM, first compound 3.16 µM
[36] = second compound 10 µM, first compound 10 µM
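Further: spheroids exposed to agents for seven days before luminescence read.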
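Wherever viability, T/C is given: luminescent signal used as a stand-in for spheroid viability; percent viability relative to DMSO vehicle control wells taken as 100%.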

IC50 (second compound 0.0316 µM): > 10 µM
IC50 (second compound 0.1 µM): > 10 µM
IC50 (second compound 0.316 µM): > 10 µM
IC50 (second compound 1 µM): > 10 µM
IC50 (second compound 3.16 µM): > 10 µM
IC50 (second compound 10 µM): > 10 µM
SMILES: C#Cc1c(F)ccc2cc(O)cc(-c3ncc4c(N5CC6CCC(C5)N6)nc(OCC56CCCN5CC(F)C6)nc4c3F)c12 (stereo unspecified) + Cc1nc(NC(=O)N2CCCC2C(N)=O)sc1-c1ccnc(C(C)(C)C(F)(F)F)c1
viability, T/C [1]: 108%
viability, T/C [2]: 97%
viability, T/C [3]: 121%
viability, T/C [4]: 102%
viability, T/C [5]: 108%
viability, T/C [6]: 100%
viability, T/C [7]: 111%
viability, T/C [8]: 98.2%
viability, T/C [9]: 94.9%
viability, T/C [10]: 103%
viability, T/C [11]: 116%
viability, T/C [12]: 102%
viability, T/C [13]: 103%
viability, T/C [14]: 102%
viability, T/C [15]: 108%
viability, T/C [16]: 101%
viability, T/C [17]: 112%
viability, T/C [18]: 108%
viability, T/C [19]: 100%
viability, T/C [20]: 97.4%
viability, T/C [21]: 114%
viability, T/C [22]: 100%
viability, T/C [23]: 112%
viability, T/C [24]: 107%
viability, T/C [25]: 88.9%
viability, T/C [26]: 88.2%
viability, T/C [27]: 83%
viability, T/C [28]: 85.2%
viability, T/C [29]: 98.2%
viability, T/C [30]: 80.4%
viability, T/C [31]: 71.4%
viability, T/C [32]: 70.9%
viability, T/C [33]: 68.9%
viability, T/C [34]: 64.6%
viability, T/C [35]: 58.8%
viability, T/C [36]: 54.3%

IC50 (second compound 0.0316 µM): > 10 µM
IC50 (second compound 0.1 µM): > 10 µM
IC50 (second compound 0.316 µM): > 10 µM
IC50 (second compound 1 µM): > 10 µM
IC50 (second compound 3.16 µM): > 10 µM
IC50 (second compound 10 µM): > 10 µM
SMILES: CC(Cn1ccc(-c2ccc(C#N)c(Cl)c2)n1)NC(=O)c1cc(C(C)O)[nH]n1 (stereo unspecified) + Cc1nc(NC(=O)N2CCCC2C(N)=O)sc1-c1ccnc(C(C)(C)C(F)(F)F)c1
viability, T/C [1]: 101%
viability, T/C [2]: 107%
viability, T/C [3]: 102%
viability, T/C [4]: 104%
viability, T/C [5]: 104%
viability, T/C [6]: 113%
viability, T/C [7]: 108%
viability, T/C [8]: 105%
viability, T/C [9]: 108%
viability, T/C [10]: 102%
viability, T/C [11]: 107%
viability, T/C [12]: 109%
viability, T/C [13]: 107%
viability, T/C [14]: 101%
viability, T/C [15]: 104%
viability, T/C [16]: 93.1%
viability, T/C [17]: 115%
viability, T/C [18]: 107%
viability, T/C [19]: 111%
viability, T/C [20]: 101%
viability, T/C [21]: 109%
viability, T/C [22]: 101%
viability, T/C [23]: 101%
viability, T/C [24]: 98.7%
viability, T/C [25]: 86.4%
viability, T/C [26]: 91.5%
viability, T/C [27]: 88.3%
viability, T/C [28]: 91.4%
viability, T/C [29]: 79.3%
viability, T/C [30]: 86.1%
viability, T/C [31]: 72.4%
viability, T/C [32]: 75.6%
viability, T/C [33]: 66.5%
viability, T/C [34]: 67.3%
viability, T/C [35]: 67.3%
viability, T/C [36]: 62.4%

IC50 (second compound 0.0316 µM): 5.61 µM
IC50 (second compound 0.1 µM): 5.42 µM
IC50 (second compound 0.316 µM): 5.18 µM
IC50 (second compound 1 µM): 4.6 µM
IC50 (second compound 3.16 µM): 1.83 µM
IC50 (second compound 10 µM): < 0.0316 µM
SMILES: CC1(C)CCC(Nc2ncc(C(F)(F)F)c(-c3c[nH]c4c(P(C)(C)=O)c(C#N)ccc34)n2)CN1 (stereo unspecified) + Cc1nc(NC(=O)N2CCCC2C(N)=O)sc1-c1ccnc(C(C)(C)C(F)(F)F)c1
viability, T/C [1]: 113%
viability, T/C [2]: 92%
viability, T/C [3]: 106%
viability, T/C [4]: 101%
viability, T/C [5]: 95%
viability, T/C [6]: 4.64%
viability, T/C [7]: 107%
viability, T/C [8]: 89.9%
viability, T/C [9]: 110%
viability, T/C [10]: 102%
viability, T/C [11]: 90.3%
viability, T/C [12]: 4.24%
viability, T/C [13]: 97.5%
viability, T/C [14]: 103%
viability, T/C [15]: 88%
viability, T/C [16]: 92.2%
viability, T/C [17]: 84.5%
viability, T/C [18]: 4.3%
viability, T/C [19]: 76.1%
viability, T/C [20]: 75.9%
viability, T/C [21]: 79.3%
viability, T/C [22]: 79.4%
viability, T/C [23]: 72.3%
viability, T/C [24]: 3.52%
viability, T/C [25]: 59.1%
viability, T/C [26]: 54.3%
viability, T/C [27]: 53.7%
viability, T/C [28]: 55.3%
viability, T/C [29]: 45.6%
viability, T/C [30]: 2.38%
viability, T/C [31]: 35.5%
viability, T/C [32]: 34.1%
viability, T/C [33]: 36.2%
viability, T/C [34]: 34%
viability, T/C [35]: 39%
viability, T/C [36]: 1.61%

Source: PubChem BioAssay AID1963977 (Molecular Pharmacology Branch, DTP, NCI, 2024)
